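Dose response: 5 concentrations. Exposure: 48 h. Format: 96-well plates. Endpoint: linear interpolation; highest concentration if not reached. GI50: concentration for 50% inhibition of growth. Definition used: TGI = concentration required for complete inhibition of growth.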
Legend:
Assay in all cases: growth of human tumour cells (NCI), 48 h
786-0 renal = system: 786-0 renal
A498 renal = system: A498 renal
A549 NSCLC = system: A549 NSCLC
ACHN renal = system: ACHN renal
BT-549 breast = system: BT-549 breast
CCRF-CEM leukemia = system: CCRF-CEM leukemia
DU-145 prostate = system: DU-145 prostate
EKVX NSCLC = system: EKVX NSCLC
HCC-2998 colon = system: HCC-2998 colon
HCT-116 colon = system: HCT-116 colon
HCT-15 colon = system: HCT-15 colon
HL-60(TB) leukemia = system: HL-60(TB) leukemia
HOP-62 NSCLC = system: HOP-62 NSCLC
HOP-92 NSCLC = system: HOP-92 NSCLC
HS 578T breast = system: HS 578T breast
HT29 colon = system: HT29 colon
IGROV1 ovarian = system: IGROV1 ovarian
KM12 colon = system: KM12 colon
LOX IMVI melanoma = system: LOX IMVI melanoma
M14 melanoma = system: M14 melanoma
MCF7 breast = system: MCF7 breast
MDA-MB-231 breast = system: MDA-MB-231 breast
MOLT-4 leukemia = system: MOLT-4 leukemia
NCI-H226 lung = system: NCI-H226 lung
NCI-H23 lung = system: NCI-H23 lung
NCI-H460 lung = system: NCI-H460 lung
NCI-H522 lung = system: NCI-H522 lung
NCI/ADR-RES ovarian = system: NCI/ADR-RES ovarian
OVCAR-3 ovarian = system: OVCAR-3 ovarian
OVCAR-4 ovarian = system: OVCAR-4 ovarian
OVCAR-5 ovarian = system: OVCAR-5 ovarian
OVCAR-8 ovarian = system: OVCAR-8 ovarian
PC-3 prostate = system: PC-3 prostate
RXF 393 renal = system: RXF 393 renal
SF-268 CNS = system: SF-268 CNS
SF-295 CNS = system: SF-295 CNS
SF-539 CNS = system: SF-539 CNS
SK-MEL-2 melanoma = system: SK-MEL-2 melanoma
SK-MEL-28 melanoma = system: SK-MEL-28 melanoma
SK-MEL-5 melanoma = system: SK-MEL-5 melanoma
SK-OV-3 ovarian = system: SK-OV-3 ovarian
SN12C renal = system: SN12C renal
SNB-19 CNS = system: SNB-19 CNS
SNB-75 CNS = system: SNB-75 CNS
SR leukemia = system: SR leukemia
SW-620 colon = system: SW-620 colon
T-47D breast = system: T-47D breast
TK-10 renal = system: TK-10 renal
U251 CNS = system: U251 CNS
UACC-62 melanoma = system: UACC-62 melanoma
UO-31 renal = system: UO-31 renal

Structure (SMILES): CCOC(=O)c1cc(C(=O)c2cc(OC)cc(OC)c2)n2nc(C)ccc12
- GI50 (786-0 renal): 523 nM
- TGI (786-0 renal): > 100000 nM
- GI50 (A498 renal): 388 nM
- TGI (A498 renal): > 100000 nM
- GI50 (A549 NSCLC): 766 nM
- TGI (A549 NSCLC): > 100000 nM
- GI50 (ACHN renal): 731 nM
- TGI (ACHN renal): > 100000 nM
- GI50 (BT-549 breast): 1990 nM
- TGI (BT-549 breast): > 100000 nM
- GI50 (CCRF-CEM leukemia): 348 nM
- TGI (CCRF-CEM leukemia): > 100000 nM
- GI50 (DU-145 prostate): 906 nM
- TGI (DU-145 prostate): > 100000 nM
- GI50 (EKVX NSCLC): 975 nM
- TGI (EKVX NSCLC): > 100000 nM
- GI50 (HCC-2998 colon): 3340 nM
- TGI (HCC-2998 colon): > 100000 nM
- GI50 (HCT-116 colon): 331 nM
- TGI (HCT-116 colon): > 100000 nM
- GI50 (HCT-15 colon): 280 nM
- TGI (HCT-15 colon): > 100000 nM
- GI50 (HL-60(TB) leukemia): 248 nM
- TGI (HL-60(TB) leukemia): 797 nM
- GI50 (HOP-62 NSCLC): 691 nM
- TGI (HOP-62 NSCLC): > 100000 nM
- GI50 (HOP-92 NSCLC): 446 nM
- TGI (HOP-92 NSCLC): > 100000 nM
- GI50 (HS 578T breast): 284 nM
- TGI (HS 578T breast): > 100000 nM
- GI50 (HT29 colon): 401 nM
- TGI (HT29 colon): > 100000 nM
- GI50 (IGROV1 ovarian): 943 nM
- TGI (IGROV1 ovarian): > 100000 nM
- GI50 (KM12 colon): 254 nM
- TGI (KM12 colon): > 100000 nM
- GI50 (LOX IMVI melanoma): 493 nM
- TGI (LOX IMVI melanoma): > 100000 nM
- GI50 (M14 melanoma): 251 nM
- TGI (M14 melanoma): > 100000 nM
- GI50 (MCF7 breast): 313 nM
- TGI (MCF7 breast): > 100000 nM
- GI50 (MDA-MB-231 breast): 1700 nM
- TGI (MDA-MB-231 breast): > 100000 nM
- GI50 (MOLT-4 leukemia): 527 nM
- TGI (MOLT-4 leukemia): > 100000 nM
- GI50 (NCI-H226 lung): > 100000 nM
- TGI (NCI-H226 lung): > 100000 nM
- GI50 (NCI-H23 lung): 1290 nM
- TGI (NCI-H23 lung): > 100000 nM
- GI50 (NCI-H460 lung): 365 nM
- TGI (NCI-H460 lung): > 100000 nM
- GI50 (NCI-H522 lung): 303 nM
- TGI (NCI-H522 lung): > 100000 nM
- GI50 (NCI/ADR-RES ovarian): 308 nM
- TGI (NCI/ADR-RES ovarian): 14800 nM
- GI50 (OVCAR-3 ovarian): 289 nM
- TGI (OVCAR-3 ovarian): 2110 nM
- GI50 (OVCAR-4 ovarian): 1450 nM
- TGI (OVCAR-4 ovarian): > 100000 nM
- GI50 (OVCAR-5 ovarian): 2700 nM
- TGI (OVCAR-5 ovarian): > 100000 nM
- GI50 (OVCAR-8 ovarian): 1090 nM
- TGI (OVCAR-8 ovarian): > 100000 nM
- GI50 (PC-3 prostate): 317 nM
- TGI (PC-3 prostate): > 100000 nM
- GI50 (RXF 393 renal): 239 nM
- TGI (RXF 393 renal): 3160 nM
- GI50 (SF-268 CNS): 676 nM
- TGI (SF-268 CNS): > 100000 nM
- GI50 (SF-295 CNS): 311 nM
- TGI (SF-295 CNS): 38300 nM
- GI50 (SF-539 CNS): 349 nM
- TGI (SF-539 CNS): 3020 nM
- GI50 (SK-MEL-2 melanoma): 494 nM
- TGI (SK-MEL-2 melanoma): > 100000 nM
- GI50 (SK-MEL-28 melanoma): > 100000 nM
- TGI (SK-MEL-28 melanoma): > 100000 nM
- GI50 (SK-MEL-5 melanoma): 276 nM
- TGI (SK-MEL-5 melanoma): > 100000 nM
- GI50 (SK-OV-3 ovarian): 878 nM
- TGI (SK-OV-3 ovarian): > 100000 nM
- GI50 (SN12C renal): 692 nM
- TGI (SN12C renal): > 100000 nM
- GI50 (SNB-19 CNS): 752 nM
- TGI (SNB-19 CNS): > 100000 nM
- GI50 (SNB-75 CNS): 384 nM
- TGI (SNB-75 CNS): > 100000 nM
- GI50 (SR leukemia): 75.9 nM
- TGI (SR leukemia): > 100000 nM
- GI50 (SW-620 colon): 280 nM
- TGI (SW-620 colon): > 100000 nM
- GI50 (T-47D breast): 501 nM
- TGI (T-47D breast): > 100000 nM
- GI50 (TK-10 renal): > 100000 nM
- TGI (TK-10 renal): > 100000 nM
- GI50 (U251 CNS): 549 nM
- TGI (U251 CNS): > 100000 nM
- GI50 (UACC-62 melanoma): 477 nM
- TGI (UACC-62 melanoma): > 100000 nM
- GI50 (UO-31 renal): 698 nM
- TGI (UO-31 renal): > 100000 nM

Source: PubChem BioAssay (NCI)
